Test results from patent US10336788B2, “Inhibition of cardiac fibrosis in myocardial infarction” (Moerae Matrix, Inc., priority 2014, dated 2019).
No end group written: not given here.

How the values were obtained:
[1] = tested on: 40 non-kinase enzyme assays, including phosphatases and proteases; test: Panel of 40 non-kinase enzyme assays; assay type: biochemical; conditions: 100 μM; data not shown
C57BL/6 mice = test: Conscious echocardiography of cardiac function after acute myocardial infarction (permanent LAD ligation)
Description: Eight to ten week old C57BL/6 mice (25-30 g) were obtained from Charles River (Wilmington, Mass.) and maintained for at least 7 days with free access to standard rodent food and water. Myocardial infarction was induced by permanent ligation of the left anterior descending (LAD) coronary artery as described previously [Maejima Y, Kyoi S, Zhai P, Liu T, Li H, Ivessa A, et al. Mst1 inhibits autophagy by promoting the interaction between Beclin1 and Bcl-2. Nature Medicine. 2013; 19:1478-88; Qian L, Huang Y, Spencer C I, Foley A, Vedantham V, Liu L, et al. In vivo reprogramming of murine cardiac fibroblasts into induced cardiomyocytes. Nature. 2012; 485:593-8]. Post-surgery, mice were immediately treated with lidocaine (6 mg/kg IM) and atropine (0.04-0.10 mg/kg IM) upon surgical closure, followed by lidocaine and atropine every 2-4 hours for the first 24 hours to prevent arrhythmias. Post-anesthesia, mice were given 0.1 mg/kg buprenorphine every 12 hours for the first 48 hours. […] Cardiac function was measured by conscious echocardiography using a Vevo 2100 ultrasound biomicrscopy system (VisualSonics, Inc., Toronto, Canada) at baseline, 1, 7, and 14 days, as previously described [Oakley R H, Ren R, Cruz-Topete D, Bird G S, Myers P H, Boyle M C, et al. Essential role of stress hormone signaling in cardiomyocytes for the prevention of heart disease. Proc Natl Acad Scie USA. 2013; 110:17035-40; Willis M S, Homeister J W, Rosson G B, Annayev Y, Holley D, Holly S P, et al. Functional redundancy of SWI/SNF catalytic subunits in maintaining vascular endothelial cells in the adult heart. Circulation Res. 2012; 111:e111-22; Willis M S, Schisler J C, Li L, Rodriguez J E, Hilliard E G, Charles P C, et al. Cardiac muscle ring finger-1 increases susceptibility to heart failure in vivo. Circulation Res. 2009; 105:80-8].
Echocardiography was used to follow cardiac function and morphometry prior to the surgical induction of an acute myocardial infarction (AMI) induced by thoracotomy and ligation of the left anterior descending coronary artery in C57BL/6 mice. Cardiac function was then followed at 7 and 14 days post-AMI (FIG. 1A).

HL1 cells = test: Caspase 3/7 activity in HL1 cells challenged with 1% hypoxia; assay type: cell-based, mouse; conditions: 100 μM, 12 hours
Experimental: H9C2 is a myoblast cell line derived from rat myocardium obtained from ATCC® (CRL-1446, ATCC, Manassas, Va.) and cultured according to the recommended protocols. Briefly, cells were maintained at 37° C. with 5% CO2 in DMEM supplemented with 10% fetal bovine serum and antibiotics (100 U/ml penicillin, […] streptomycin) and split at a ratio of 1:4 using 0.05% trypsin every 36 hours. […]
Cells were rinsed in PMS and grown in DMEM (cat. #11966-025, Gibco) for 2 hours prior to initiating hypoxia (simulated ischemia). […] Three different time points were adopted for each of the three cell lines according to the severity of cell death under hypoxia determined by LDH release: for H9C2 cell line: 8 hr; 16 hr; 24 hr; for HL-1 cell line: 4 hr; 8 hr; 12 hr; for cardiac fibroblast cell line: 16 hr; 32 hr; 48 hr.
Cell death was first determined using an LDH release assay (cat. #630117, Clontech), according to the manufacturer's instructions. […] Caspase 3/7 activity was next determined using a commercial Caspase 3/7 activity kit (Cat. #G8091, Promega, Madison, Wis. 53711) in a 384 well plate (Cat. #781903, Greiner bio-one) according to the manufacturer's instructions. […] The resulting cell lysates (25 μl, with 0.6 ug total protein) and Caspase-Glo 3/7 Reagent were added to each well in a 1:1 ratio and the luminescence was read (CLARIOstar, BMG LABTECH GmbH). […]

YARAAARQARAKALARQLGVAA [MMI-0100]
interaction at non-kinase enzyme targets (significant if greater than 50% inhibition of activity) [1]: No significant interaction | LV dilation: LVID; d decreased (C57BL/6 mice; AMI mice treated with MMI-0100, compared to sham, vs. 40% without MMI-0100): 29% | LV dilation: LV Volume; d decreased (C57BL/6 mice; AMI mice treated with MMI-0100, compared to sham, vs. 130% without MMI-0100): 88% | cardiac function compared to untreated AMI mice (C57BL/6 mice; AMI mice, 50 μg/kg/day intraperitoneally, first dose 30 minutes after LAD ligation, 1 and 2 weeks after AMI): significantly greater function | effect on cardiac function, MMI-0100 alone (C57BL/6 mice; mice without AMI, daily MMI-0100 intraperitoneally for 14 days): did not have any effect | caspase 3/7 activity (HL1 cells): inhibited
